# Assay results reported in ChEMBL document CHEMBL1201862, “PubChem BioAssay data set” (2004).
# Calls of active or inactive are those of the source.
# Legend:
# [1] = target: T1, E3 ubiquitin-protein ligase XIAP (Homo sapiens, UniProt P98170); assay: Counter Screen using XIAP-Bir3 for Chemical Antagonists of Bir1/2 domains of IAP-family anti-apoptotic proteins. [Related pubchem assays (depositor defined):AID1018, AID1449, AID1514, AID1638, AID1749, AID1750, AID488957, AID488963]
# [2] = target: T1, E3 ubiquitin-protein ligase XIAP; assay: small molecules displacing peptide from XIAP – biochemical, IAP family, fluorescence polarization (AID 1018); format: functional
# Cytochrome P450 2D6 = Cytochrome P450 2D6 (Homo sapiens, UniProt P10635);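 also: CYP2D6 member of a cytochrome P450 panel assay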
# Protein Wnt-3a = Protein Wnt-3a (Mus musculus, UniProt P27467); assay: antagonism of Wnt3a pathway luciferase reporter – Wnt-LIGHT cells, luminescence, selectivity assay for Gli-SUFU antagonist project, dose response (AID 651570); format: functional; conditions: read-out: IC50_Mean;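 also: Wnt-LIGHT reporter cells stimulated with conditioned medium from Wnt3a-producing cells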
# [3] = non-specific 3'UTR reporter inhibition in Clone20-Shn3RL – cell-based, Renilla luciferase, cherry-picked, counter-screen for Shn3 inhibitor project, dose response (AID 624133); format: functional
# [4] = reduction of Shn3 3'UTR-driven luciferase in osteoblasts – cell-based, Clone20 osteoblasts, firefly luciferase, cherry-picked, dose response (AID 624132); format: functional;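 also: firefly luciferase luminescence from reporter carrying the Shn3 3'UTR in osteoblasts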
# [5] = target: Voltage-dependent T-type calcium channel subunit alpha-1H (Homo sapiens, UniProt O95180); format: functional;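 also: channel activity triggered by adding a high calcium stimulation buffer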
# [6] = target: Glucose-6-phosphate 1-dehydrogenase (Homo sapiens, UniProt P11413); assay: inhibition of Homo sapiens G6PD, dose series – biochemical, fluorescence, selectivity assay for P. falciparum G6PD inhibitor project, dose response (AID 504792); format: functional
# [7] = decrease of insulin promoter-GFP reporter – imaging, high-content screening, mouse beta cells (AID 1628); format: functional; conditions: MIN6
# INS1 = assay: INS-1E survival protection against cytokine death – cell-based, luminescence, retest, dose response (AID 449756); format: functional; conditions: Rattus norvegicus;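 also: cell death triggered by IL-1 beta plus TNF-alpha plus IFN-gamma mixture; protective hits raise ATP signal compared with cytokine alone wells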
# [8] = NIH3T3 cell viability loss – ATP luminescence, mouse fibroblasts, counter-screen, dose response (AID 2010); format: functional, cell-based;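 also: cells exposed to compound for about 90 hours before reading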
# [9] = MIN6 cell viability loss – mouse insulinoma, cytotoxicity control, dose response (AID 2122); format: functional;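 also: confirmatory high-throughput counterscreen run to flag cytotoxic compounds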
# [10] = Trypanosoma cruzi growth suppression in host cells – NIH3T3 host cells, beta-gal luminescence, confirmation (AID 2044); format: functional, cell-based;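 also: intracellular parasites grown in NIH/3T3 mouse fibroblasts as host cells; luminescent beta-galactosidase reporter signal from transgenic T. cruzi replicating inside host cells; inhibitors lower the luminescence signal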
# [11] = target: Dual specificity tyrosine-phosphorylation-regulated kinase 1A (Rattus norvegicus, UniProt Q63470); format: biochemical, Homo sapiens
# Nonstructural protein 1 = Nonstructural protein 1 (Influenza A virus, UniProt Q194T2); format: functional, Influenza A virus (A/California/07/2009(H1N1))
# [12] = target: E3 ubiquitin-protein ligase Mdm2 (Homo sapiens, UniProt Q00987); assay: MDM2-luc reporter signal enhancers, multi-concentration potency testing, MDM2 ubiquitin-protein ligase inhibitor program, whole-cell format, luminescence detection, 384-well microplate (AID 1394); format: functional;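 also: MDM2 E3 inhibitors raise luminescence so EC50 is for signal enhancement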
# [13] = target: T2, Microphthalmia-associated transcription factor (Homo sapiens, UniProt O75030); assay: reducers of TRPM1 reporter luminescence, concentration series – cell-based, SK-MEL-5, cherry-picked, set 3, MITF inhibitor project, dose response (AID 493073); format: functional;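 also: SK-MEL-5 melanoma cells with luciferase driven by the MITF target TRPM1 promoter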
# T2 sequence (O75030 whole entry): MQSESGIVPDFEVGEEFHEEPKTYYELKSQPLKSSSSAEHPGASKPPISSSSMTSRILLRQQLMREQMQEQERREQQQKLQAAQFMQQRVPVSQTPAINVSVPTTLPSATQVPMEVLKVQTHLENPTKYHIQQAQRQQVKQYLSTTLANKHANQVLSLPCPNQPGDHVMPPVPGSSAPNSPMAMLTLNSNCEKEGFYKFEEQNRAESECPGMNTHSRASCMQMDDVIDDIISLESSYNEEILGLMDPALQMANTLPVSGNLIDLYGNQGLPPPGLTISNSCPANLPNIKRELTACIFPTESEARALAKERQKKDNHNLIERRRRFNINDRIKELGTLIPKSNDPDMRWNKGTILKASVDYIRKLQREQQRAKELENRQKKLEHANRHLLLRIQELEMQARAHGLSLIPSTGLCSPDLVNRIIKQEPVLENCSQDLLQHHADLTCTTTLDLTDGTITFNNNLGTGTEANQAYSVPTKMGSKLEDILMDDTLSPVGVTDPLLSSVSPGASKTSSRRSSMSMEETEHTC
# [14] = A Cell Based Secondary Assay To Explore Cytotoxicity of Compounds that Sensitize Mycobacterium Tuberculosis to Beta-Lactam Antibiotics.; format: functional
# [15] = NIH-3T3 fibroblast cytotoxicity, dose response, cytotoxicity control, cell-based, fluorescence, Alamar Blue, secondary assay (AID 2327); format: functional;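 also: NIH-3T3 mouse fibroblasts cultured with fluconazole at 8 µg/mL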
# [16] = fluconazole-exposed Candida albicans growth modulators – fluorescence, retest, confirmation (AID 2467); format: functional, cell-based
# [17] = target: T3, Mannose-6-phosphate isomerase (Homo sapiens, UniProt P34949); assay: phosphomannose isomerase inhibition – biochemical, fluorescence intensity, confirmation (AID 1535)
# T3 sequence (P34949 whole entry): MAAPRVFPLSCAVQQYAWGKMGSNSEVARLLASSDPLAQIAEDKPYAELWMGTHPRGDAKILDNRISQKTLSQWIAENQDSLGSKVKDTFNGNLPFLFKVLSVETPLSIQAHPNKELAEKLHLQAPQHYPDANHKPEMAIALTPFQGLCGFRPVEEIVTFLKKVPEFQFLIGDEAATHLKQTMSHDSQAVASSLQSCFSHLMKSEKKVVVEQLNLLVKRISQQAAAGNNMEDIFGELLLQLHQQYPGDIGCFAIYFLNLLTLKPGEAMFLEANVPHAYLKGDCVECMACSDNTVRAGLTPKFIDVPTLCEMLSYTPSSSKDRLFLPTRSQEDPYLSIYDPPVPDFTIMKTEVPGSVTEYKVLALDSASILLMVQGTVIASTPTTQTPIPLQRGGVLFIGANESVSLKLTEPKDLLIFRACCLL
# Cytochrome P450 3A4 = Cytochrome P450 3A4 (Homo sapiens, UniProt P08684);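 also: CYP3A4 tested as one member of a cytochrome P450 panel screen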
# [18] = microbe, parasite or virus in culture; format: functional; conditions: Mycobacterium tuberculosis
# [19] = target: DNA dC->dU-editing enzyme APOBEC-3G (Homo sapiens, UniProt Q9HC16); assay: inhibition of APOBEC3G ssDNA deamination – biochemical, fluorescence, single-stranded DNA substrate, SAR follow-up (AID 602136); format: functional; conditions: read-out: IC50_Mean
# [20] = target: DNA dC->dU-editing enzyme APOBEC-3A (Homo sapiens, UniProt P31941); assay: SAR analysis of small molecule inhibitors of APOBEC3A DNA Deaminase via a fluorescence-based single-stranded DNA deaminase assay.; format: functional; conditions: read-out: IC50_Mean
# HEK293 = assay: EBV LMP1 TES2 canonical NF-kB signalling blockers – cell-based, HEK293, luciferase, cherry-pick, dose response (AID 588343); format: functional; conditions: Homo sapiens
# [21] = target: T4, Alkaline phosphatase, tissue-nonspecific isozyme (Homo sapiens, UniProt P05186); assay: potency against alkaline phosphatase TNAP – biochemical, luminescent, dose response, SAR follow-up (AID 1056)
# T4 sequence (P05186 whole entry): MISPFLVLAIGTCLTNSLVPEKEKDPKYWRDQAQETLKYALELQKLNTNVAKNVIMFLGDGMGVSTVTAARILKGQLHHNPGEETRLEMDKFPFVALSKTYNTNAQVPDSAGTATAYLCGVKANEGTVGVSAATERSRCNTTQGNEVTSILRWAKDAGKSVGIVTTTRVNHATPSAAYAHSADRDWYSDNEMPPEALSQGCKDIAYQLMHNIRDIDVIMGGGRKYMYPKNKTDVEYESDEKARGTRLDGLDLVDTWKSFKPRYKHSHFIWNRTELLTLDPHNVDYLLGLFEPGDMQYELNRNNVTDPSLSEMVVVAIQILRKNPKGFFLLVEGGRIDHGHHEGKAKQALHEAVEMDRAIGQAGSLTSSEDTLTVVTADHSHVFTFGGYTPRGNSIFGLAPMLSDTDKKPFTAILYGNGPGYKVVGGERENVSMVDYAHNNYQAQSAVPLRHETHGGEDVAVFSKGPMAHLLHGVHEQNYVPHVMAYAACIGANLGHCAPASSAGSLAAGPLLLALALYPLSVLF
# Sequence of Protein Wnt-3a (P27467 whole entry): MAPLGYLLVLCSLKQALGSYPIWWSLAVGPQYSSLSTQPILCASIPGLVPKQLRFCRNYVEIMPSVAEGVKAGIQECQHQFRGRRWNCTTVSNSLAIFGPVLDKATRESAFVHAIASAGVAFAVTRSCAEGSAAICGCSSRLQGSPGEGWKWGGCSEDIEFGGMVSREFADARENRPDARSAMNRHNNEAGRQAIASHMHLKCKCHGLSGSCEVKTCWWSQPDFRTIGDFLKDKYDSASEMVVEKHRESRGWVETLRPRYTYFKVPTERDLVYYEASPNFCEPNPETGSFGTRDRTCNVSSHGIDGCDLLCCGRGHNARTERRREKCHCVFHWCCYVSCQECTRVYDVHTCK
# T1 sequence (P98170 whole entry): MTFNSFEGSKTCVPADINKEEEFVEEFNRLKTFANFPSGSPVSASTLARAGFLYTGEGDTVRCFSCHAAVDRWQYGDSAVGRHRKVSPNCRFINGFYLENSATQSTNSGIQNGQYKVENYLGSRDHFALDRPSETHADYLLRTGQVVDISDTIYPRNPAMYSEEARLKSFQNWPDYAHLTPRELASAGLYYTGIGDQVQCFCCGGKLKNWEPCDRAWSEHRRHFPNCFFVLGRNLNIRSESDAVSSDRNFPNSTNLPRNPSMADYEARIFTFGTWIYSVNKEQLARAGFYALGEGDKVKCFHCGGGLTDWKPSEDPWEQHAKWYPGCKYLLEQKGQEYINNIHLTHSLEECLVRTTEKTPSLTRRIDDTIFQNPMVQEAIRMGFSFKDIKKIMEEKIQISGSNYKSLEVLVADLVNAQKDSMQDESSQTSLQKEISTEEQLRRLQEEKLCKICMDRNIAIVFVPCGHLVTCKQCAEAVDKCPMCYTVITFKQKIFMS
# Sequence of Cytochrome P450 2D6 (P10635 whole entry): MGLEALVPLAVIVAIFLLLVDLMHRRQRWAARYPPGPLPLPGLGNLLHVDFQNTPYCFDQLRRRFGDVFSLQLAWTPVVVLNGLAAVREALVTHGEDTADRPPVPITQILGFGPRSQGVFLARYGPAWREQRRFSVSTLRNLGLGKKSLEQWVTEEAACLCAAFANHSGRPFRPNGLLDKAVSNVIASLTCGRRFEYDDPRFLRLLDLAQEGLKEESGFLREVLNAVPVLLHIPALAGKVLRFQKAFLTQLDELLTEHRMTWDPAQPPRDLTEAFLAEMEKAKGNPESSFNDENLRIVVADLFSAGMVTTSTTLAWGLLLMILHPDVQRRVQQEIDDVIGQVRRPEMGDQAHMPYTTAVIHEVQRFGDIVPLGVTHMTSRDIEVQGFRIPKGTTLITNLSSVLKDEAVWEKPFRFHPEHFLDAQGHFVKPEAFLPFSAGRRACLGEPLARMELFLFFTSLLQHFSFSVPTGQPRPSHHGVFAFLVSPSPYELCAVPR
# Sequence of Voltage-dependent T-type calcium channel subunit alpha-1H (O95180 whole entry): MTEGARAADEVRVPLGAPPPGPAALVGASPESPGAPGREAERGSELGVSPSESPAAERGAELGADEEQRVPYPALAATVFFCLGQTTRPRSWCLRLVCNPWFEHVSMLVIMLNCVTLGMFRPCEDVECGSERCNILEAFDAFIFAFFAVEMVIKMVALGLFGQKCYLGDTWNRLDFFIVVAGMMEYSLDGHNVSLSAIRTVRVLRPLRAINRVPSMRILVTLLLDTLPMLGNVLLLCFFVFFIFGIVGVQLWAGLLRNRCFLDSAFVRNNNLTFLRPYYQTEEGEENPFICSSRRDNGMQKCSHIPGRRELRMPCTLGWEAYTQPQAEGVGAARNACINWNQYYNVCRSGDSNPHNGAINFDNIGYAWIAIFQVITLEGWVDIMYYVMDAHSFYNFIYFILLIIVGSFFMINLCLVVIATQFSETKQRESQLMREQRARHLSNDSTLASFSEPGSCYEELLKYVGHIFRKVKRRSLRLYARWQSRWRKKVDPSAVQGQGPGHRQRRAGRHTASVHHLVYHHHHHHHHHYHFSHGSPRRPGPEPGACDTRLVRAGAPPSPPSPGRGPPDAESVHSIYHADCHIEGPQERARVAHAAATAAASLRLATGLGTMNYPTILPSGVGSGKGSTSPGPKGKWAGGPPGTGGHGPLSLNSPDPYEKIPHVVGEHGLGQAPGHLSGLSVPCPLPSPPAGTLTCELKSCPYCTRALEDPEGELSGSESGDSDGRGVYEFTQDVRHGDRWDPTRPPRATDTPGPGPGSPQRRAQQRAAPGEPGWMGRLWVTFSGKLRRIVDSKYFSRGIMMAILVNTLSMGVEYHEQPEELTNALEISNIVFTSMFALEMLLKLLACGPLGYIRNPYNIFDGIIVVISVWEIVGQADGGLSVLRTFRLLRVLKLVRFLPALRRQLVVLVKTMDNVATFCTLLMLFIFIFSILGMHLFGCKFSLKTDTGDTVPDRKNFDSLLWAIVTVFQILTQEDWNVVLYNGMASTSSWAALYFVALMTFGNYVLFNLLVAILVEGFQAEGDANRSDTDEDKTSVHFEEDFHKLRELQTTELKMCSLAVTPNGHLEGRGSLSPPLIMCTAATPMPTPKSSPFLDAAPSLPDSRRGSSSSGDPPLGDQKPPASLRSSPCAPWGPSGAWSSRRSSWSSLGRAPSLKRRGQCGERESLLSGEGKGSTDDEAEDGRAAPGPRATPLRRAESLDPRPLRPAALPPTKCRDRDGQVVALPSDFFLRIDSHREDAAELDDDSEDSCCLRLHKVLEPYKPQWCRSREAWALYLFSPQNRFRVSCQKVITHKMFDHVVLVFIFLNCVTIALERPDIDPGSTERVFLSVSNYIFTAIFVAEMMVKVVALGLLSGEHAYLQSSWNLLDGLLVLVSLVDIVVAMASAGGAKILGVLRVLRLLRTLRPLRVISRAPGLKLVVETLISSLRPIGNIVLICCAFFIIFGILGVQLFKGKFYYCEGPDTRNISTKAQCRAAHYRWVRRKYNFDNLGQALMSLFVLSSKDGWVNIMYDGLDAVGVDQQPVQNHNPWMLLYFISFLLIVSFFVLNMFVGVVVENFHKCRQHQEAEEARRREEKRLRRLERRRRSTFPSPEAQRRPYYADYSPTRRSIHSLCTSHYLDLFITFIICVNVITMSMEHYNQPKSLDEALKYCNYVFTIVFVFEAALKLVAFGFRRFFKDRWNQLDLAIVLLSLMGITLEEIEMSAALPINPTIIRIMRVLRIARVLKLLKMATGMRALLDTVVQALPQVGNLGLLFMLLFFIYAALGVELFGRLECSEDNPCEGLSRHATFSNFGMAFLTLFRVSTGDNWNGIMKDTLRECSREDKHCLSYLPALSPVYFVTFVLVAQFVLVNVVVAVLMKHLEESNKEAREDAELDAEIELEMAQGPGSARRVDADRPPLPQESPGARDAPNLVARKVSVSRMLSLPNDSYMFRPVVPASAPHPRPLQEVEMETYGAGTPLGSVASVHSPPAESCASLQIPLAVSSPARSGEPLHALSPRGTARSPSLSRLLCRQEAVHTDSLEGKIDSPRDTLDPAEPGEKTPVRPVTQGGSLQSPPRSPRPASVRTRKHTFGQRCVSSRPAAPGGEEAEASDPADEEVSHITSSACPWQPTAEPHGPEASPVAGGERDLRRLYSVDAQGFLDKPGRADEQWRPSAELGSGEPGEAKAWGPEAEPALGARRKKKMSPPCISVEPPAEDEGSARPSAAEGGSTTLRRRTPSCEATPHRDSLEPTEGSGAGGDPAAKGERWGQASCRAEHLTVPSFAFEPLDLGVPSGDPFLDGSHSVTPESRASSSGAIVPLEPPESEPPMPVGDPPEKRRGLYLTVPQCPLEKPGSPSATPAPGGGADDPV
# Sequence of DNA dC->dU-editing enzyme APOBEC-3A (P31941 whole entry): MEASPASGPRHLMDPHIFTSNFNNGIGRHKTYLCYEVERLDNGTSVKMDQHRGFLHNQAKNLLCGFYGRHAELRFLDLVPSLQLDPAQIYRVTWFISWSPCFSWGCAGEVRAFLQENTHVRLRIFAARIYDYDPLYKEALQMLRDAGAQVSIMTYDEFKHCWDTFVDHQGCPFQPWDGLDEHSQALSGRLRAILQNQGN
# Sequence of DNA dC->dU-editing enzyme APOBEC-3G (Q9HC16 whole entry): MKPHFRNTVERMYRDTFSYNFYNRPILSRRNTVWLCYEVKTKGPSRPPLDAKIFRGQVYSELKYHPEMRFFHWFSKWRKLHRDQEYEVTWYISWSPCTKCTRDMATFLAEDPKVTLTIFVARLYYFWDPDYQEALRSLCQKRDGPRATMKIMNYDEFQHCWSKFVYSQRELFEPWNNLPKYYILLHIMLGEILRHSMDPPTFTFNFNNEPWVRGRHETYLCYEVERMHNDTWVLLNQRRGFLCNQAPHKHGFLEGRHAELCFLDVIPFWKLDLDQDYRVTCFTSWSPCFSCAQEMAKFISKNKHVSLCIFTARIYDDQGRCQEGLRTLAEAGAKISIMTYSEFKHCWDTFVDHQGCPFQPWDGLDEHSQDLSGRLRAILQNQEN
# Sequence of Glucose-6-phosphate 1-dehydrogenase (P11413 whole entry): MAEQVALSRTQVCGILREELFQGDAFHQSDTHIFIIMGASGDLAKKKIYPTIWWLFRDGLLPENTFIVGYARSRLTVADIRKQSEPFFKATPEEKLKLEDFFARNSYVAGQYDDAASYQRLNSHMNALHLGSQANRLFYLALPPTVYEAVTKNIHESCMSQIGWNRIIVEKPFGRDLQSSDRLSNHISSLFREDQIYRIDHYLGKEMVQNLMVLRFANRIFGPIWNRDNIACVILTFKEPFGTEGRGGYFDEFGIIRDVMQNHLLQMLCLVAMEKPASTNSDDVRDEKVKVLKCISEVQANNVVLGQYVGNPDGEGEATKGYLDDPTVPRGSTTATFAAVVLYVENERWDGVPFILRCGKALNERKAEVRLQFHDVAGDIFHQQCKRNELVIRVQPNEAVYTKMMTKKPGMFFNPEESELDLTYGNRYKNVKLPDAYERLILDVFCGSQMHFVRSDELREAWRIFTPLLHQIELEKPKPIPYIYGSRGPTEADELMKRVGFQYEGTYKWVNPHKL
# Sequence of Nonstructural protein 1 (Q194T2 whole entry): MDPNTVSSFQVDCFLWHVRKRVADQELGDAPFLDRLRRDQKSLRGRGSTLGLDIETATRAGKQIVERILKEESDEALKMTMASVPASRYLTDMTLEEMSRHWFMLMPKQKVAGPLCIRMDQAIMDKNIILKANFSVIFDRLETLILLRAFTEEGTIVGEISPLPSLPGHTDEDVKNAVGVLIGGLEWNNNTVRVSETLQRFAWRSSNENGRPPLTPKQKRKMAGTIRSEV
structure (smiles),measurement,setting,value
CCn1c(=O)cc(OCC(=O)NCCC(C)C)c2ccccc21,IC50,[1],> 100 µM (inactive)
same,IC50,[2],> 100 µM (not active)
CCC12CN3CCN(CC(C3)C1O)C2 (configuration not stated),IC50,[1],> 100 µM (inactive)
same,IC50,[2],> 100 µM (not active)
O=C1CN(/N=C\c2ccc(-c3ccc([N+](=O)[O-])cc3)o2)C([O-])=N1.[Na+],AC50,Cytochrome P450 2D6,inactive
CC(C)=CCC/C(C)=C/CNC(=O)C[C@H]1C[C@H](C(=O)N2CCOCC2)[C@@]2(C)c3[nH]c4cc(CCC(=O)N(C)C)ccc4c3CCN2C1=O,IC50,Protein Wnt-3a,23.6 µM (inactive)
same,AC50,[3],1.33 µM (active)
same,AC50,[4],1.11 µM (active)
O=C(Nc1ccc2c(c1)OCO2)C1CCN(Cc2cnn(-c3ccccc3)c2-n2cccc2)CC1,EC50,[5],5.88 µM (active)
C[C@H](NC(=O)c1cc2c3ccccc3nc-2c[nH]1)C(=O)O,IC50,[6],> 80 µM (inactive)
Cc1ccc(-c2nc(NC(=O)CSc3ccc4ccccc4n3)ns2)cc1,IC50,[1],> 100 µM (inactive)
same,IC50,[2],> 100 µM (not active)
Cc1oc(-c2ccccc2)nc1Cn1cccc1C1=NC(c2ccccc2)CO1 (configuration not stated),EC50,[5],7.51 µM (active)
O=C(Nc1nc2ccc([N+](=O)[O-])cc2s1)c1ccc(S(=O)(=O)N2CCCc3ccccc32)cc1,IC50,[7],2.16 µM (active)
same,AC50,INS1,3.34 µM (active)
same,EC50,[8],> 30 µM (not active)
same,IC50,[9],1.46 µM (active)
same,EC50,[10],2.01 µM (active)
N=c1oc2cc(O)ccc2cc1C(=O)Nc1ccc(F)cc1,AC50,[11],14.5 µM (active)
Cc1ccc(Cl)cc1N1CCN(Cc2nnnn2Cc2ccco2)CC1,EC50,[5],0.633 µM (active)
O=C(c1ccc(C(F)(F)F)cc1)C1CCCN(Cc2ccncc2)C1 (configuration not stated),IC50,Protein Wnt-3a,5.15 µM (active)
CO[C@@H]1COC(=O)CCC[C@@H](C)[C@H](OC)COC(=O)CCC[C@H]1C,AC50,Cytochrome P450 2D6,inconclusive
COc1ccc(C2=NS(=O)(=O)N(C)C(C(=O)Nc3ccc4c(c3)OCO4)=C2)cc1OC,IC50,Nonstructural protein 1,> 100 µM (active)
Cc1n[nH]c(NC(=O)/C=C/c2ccccc2)n1,EC50,[12],1.09 µM (active)
same,AC50,[13],17.8 µM (active)
CC1CCN(S(=O)(=O)c2ccc(NN=C(C#N)C#N)cc2)CC1,EC50,[5],1.52 µM (active)
CCCCCn1c(=O)c(C(=O)NCc2ccncc2)c(O)c2ccccc21,CC50,[14],14.7 µM (active)
same,EC50,[15],> 150 µM (inactive)
same,EC50,[16],> 38 µM (not active)
CCCCCCCn1c(=N)n(CC(O)c2ccco2)c2ccccc21 (configuration not stated),IC50,[7],1.79 µM (active)
same,IC50,[9],3.55 µM (active)
NCCc1cc(O)c(O)cc1O,IC50,[6],> 80 µM (inactive)
O=C(N[C@@H]1C/C=C\C[C@@H](CC(=O)N(CCO)Cc2ccccc2)C(=O)NC[C@H](c2ccccc2)OC1=O)OCC1c2ccccc2-c2ccccc21,IC50,Protein Wnt-3a,8.93 µM (active)
same,AC50,[3],4.32 µM (active)
same,AC50,[4],7.04 µM (active)
Clc1ncccc1/N=c1\ssnc1Cl,IC50,[17],9.88 µM (active)
Cc1ccc(C(=O)O/N=C\c2ccc(N3CCCCC3)c([N+](=O)[O-])c2)cc1,AC50,Cytochrome P450 3A4,22.4 µM (inconclusive)
same,CC50,[18],> 40 µM (active)
same,AC50,Cytochrome P450 2D6,inconclusive
Cc1ccc(CN(C)C(=O)CSc2nnc(-c3ccc(F)cc3)n2C)o1,IC50,[19],> 99 µM (inactive)
same,IC50,[20],> 99 µM (inactive)
CCCCN1CCc2cc(/C=C3\C(=O)NC(=S)N(C4CC4)C3=O)ccc21,IC50,[19],68.2 µM (inactive)
same,IC50,[20],57.1 µM (inactive)
O=[N+]([O-])c1ccc(/C=N/Nc2ccnc3cc(Cl)ccc23)o1,AC50,INS1,9.06 µM (active)
same,AC50,[13],15.3 µM (active)
COc1ccc(-c2nnc(SCC(=O)N(C)Cc3cccs3)[nH]2)cc1,IC50,[19],> 99 µM (inactive)
same,IC50,[20],> 99 µM (inactive)
COc1ccc2c(c1)CCc1c[nH]nc1-2,AC50,[11],> 120 µM (inactive)
C/C(=N\NC(=O)c1ccccc1O)c1ccc(Br)s1,CC50,[14],24.4 µM (active)
COc1cc(/C=N/Nc2cc(C)nc(NS(=O)(=O)c3ccc(C)cc3)n2)ccc1O,IC50,[1],> 100 µM (inactive)
same,IC50,[2],> 100 µM (not active)
O=C1C(/C=N/Cc2ccncc2)=C(O)c2ccccc21,AC50,[11],7.11 µM (active)
Cc1cc(C)nc(N/N=C/c2c(CO)cnc(C)c2O)n1,IC50,Nonstructural protein 1,20.2 µM (active)
Cc1cc(O)nc(N=N/C(=N/Nc2ccccc2C)c2ccccc2)n1,AC50,HEK293,4.66 µM (active)
same,IC50,[7],1.46 µM (active)
same,IC50,[9],1.36 µM (active)
Cc1cc(C)nc(NCc2ccc(O)c(O)c2)n1,IC50,[21],27 µM (active)
